Reference: EP4722219A1 (Gan & Lee Pharmaceuticals Co., Ltd., priority 2023, dated 2024)

Key:
Format in all cases: cell-based
T-47D cells = experiment: Inhibition of cell proliferation in T-47D cells (CCK-8); details: 6 days treatment, CCK-8 cell viability
Summary of the method: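 T-47D cells (3,000/well) in RPMI-1640 with 10% FBS were exposed to a concentration range of PROTAC compounds for 6 days at 37 °C, 5% CO2. Viability read by CCK-8; IC50 fitted from inhibition rate.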

MCF-7 cells = experiment: Inhibition of cell proliferation in MCF-7 cells (CCK-8); details: MCF-7 cell proliferation, 6 days treatment
Summary of the method: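 MCF-7 cells, 800 per well in DMEM plus 10% FBS, exposed to graded PROTAC concentrations for 6 days at 37 °C, 5% CO2. Viability by CCK-8; IC50 fitted from inhibition rates.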

ERα [1] = molecular target: T1, ERα (Homo sapiens, UniProt P03372); experiment: ERα degradation in T-47D cells (Western blot); details: 4 hours
T1 sequence (P03372 1-595): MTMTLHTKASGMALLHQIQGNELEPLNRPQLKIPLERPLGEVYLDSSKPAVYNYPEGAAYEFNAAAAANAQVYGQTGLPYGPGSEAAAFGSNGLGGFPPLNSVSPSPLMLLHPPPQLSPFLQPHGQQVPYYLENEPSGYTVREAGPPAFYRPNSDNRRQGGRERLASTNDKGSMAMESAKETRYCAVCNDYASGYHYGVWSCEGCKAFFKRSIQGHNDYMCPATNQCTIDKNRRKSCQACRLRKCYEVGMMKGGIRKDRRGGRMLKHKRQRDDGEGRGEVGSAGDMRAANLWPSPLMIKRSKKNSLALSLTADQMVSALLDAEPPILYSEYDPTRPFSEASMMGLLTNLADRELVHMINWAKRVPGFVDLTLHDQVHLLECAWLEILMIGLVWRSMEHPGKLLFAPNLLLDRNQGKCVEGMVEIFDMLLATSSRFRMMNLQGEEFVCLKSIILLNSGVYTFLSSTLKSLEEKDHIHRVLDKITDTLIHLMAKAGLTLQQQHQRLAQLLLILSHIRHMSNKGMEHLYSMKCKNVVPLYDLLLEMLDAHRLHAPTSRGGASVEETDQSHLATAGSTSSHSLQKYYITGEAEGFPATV
Summary of the method: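 T-47D cells at 3×10^5 cells/well were exposed to compound (final 0.15-1000 nM, DMSO) for 4 hours at 37°C and then lysed in RIPA. ERα was measured by Western blot (20 µg protein) with infrared imaging. The degradation rate was calculated from ERα/internal-reference grayscale ratios relative to control.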

ERα [2] = molecular target: T1, ERα; experiment: ERα degradation in MCF-7 cells (Western blot); design: host or cells: MCF-7; details: 4 hours
Summary of the method: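 MCF-7 cells treated 4 h at 37 °C with compound at 0.15–1000 nM final. ERα in lysates measured by Western blot (20 µg protein), normalized to an internal reference protein; degradation rate calculated against control.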

| SMILES | IC50 (T-47D cells; Homo sapiens, T47D, 144 h) [nM] | IC50 (MCF-7 cells; Homo sapiens, MCF7, 144 h) [nM] | Degradation rate of ERα in T-47D cells (%) (ERα [1]; 1nM) | Degradation rate of ERα in T-47D cells (%) (ERα [1]; 10nM) | Degradation rate of ERα in MCF-7 cells (%) (ERα [2]; 1nM) | Degradation rate of ERα in MCF-7 cells (%) (ERα [2]; 10nM) | IC50 (T-47D cells) [nM] | IC50 (MCF-7 cells) [nM] |
| --- | --- | --- | --- | --- | --- | --- | --- | --- |
| CN(C(=O)CN1CCC2(CC1)COc1c2ccc(F)c1C(=O)N[C@H]1CCC(=O)NC1=O)C1CCC2(CC1)CN(c1ccc([C@@H]3c4ccc(O)cc4CC[C@@H]3c3ccccc3)cc1)C2 [ER-P-40, N-((S)-2,6-dioxopiperidin-3-yl)-6-fluoro-1'-(2-((2-(4-((1R,2S)-6-hydroxy-2-phenyl-1,2,3,4-tetrahydronaphthalen-1-yl)phenyl)-2-azaspiro[3.5]nonan-7-yl)(methyl)amino)-2-oxoethyl)-2H-spiro[benzofuran-3,4'-piperidine]-7-carboxamide] | 28.4 | 6210 | 22 | 34 | -10 | -53 | – | – |
| Cn1c(=O)n(C2CCC(=O)NC2=O)c2ccc3c(c21)C1(CCN(C2CCC4(CC2)CN(c2ccc([C@@H]5c6ccc(O)cc6CC[C@@H]5c5ccccc5)cc2)C4)CC1)CO3 (stereo partly drawn) [ER-P-19, 3-(1'-(2-(4-((1R,2S)-6-hydroxy-2-phenyl-1,2,3,4-tetrahydronaphthalen-1-yl)phenyl)-2-azaspiro[3.5]nonan-7-yl)-1-methyl-2-oxo-1,2-dihydro-3H,7H-spiro[benzofuro[4,5-d]imidazole-8,4'-piperidin]-3-yl)piperidine-2,6-dione] | 10.3 | 4460 | 6 | 15 | -8 | 7 | – | – |
| Cn1c(=O)n(C2CCC(=O)NC2=O)c2ccc3c(c21)OCC31CCN(C2CC3(C2)CN(c2ccc([C@@H]4c5ccc(O)cc5CC[C@@H]4c4ccccc4)cc2)C3)CC1 (stereo partly drawn) [ER-P-18, 3-(1'-(2-(4-((1R,2S)-6-hydroxy-2-phenyl-1,2,3,4-tetrahydronaphthalen-1-yl)phenyl)-2-azaspiro[3.3]heptan-6-yl)-1-methyl-2-oxo-1,2-dihydro-3H,7H-spiro[benzofuro[6,7-d]imidazole-6,4'-piperidin]-3-yl)piperidine-2,6-dione] | 13.7 | 7240 | 20 | 23 | 33 | 18 | – | – |
| O=C1CC[C@H](NC(=O)c2ccc3c(c2F)OCC32CCN(C3CCC4(CC3)CCN(c3ccc([C@@H]5c6ccc(O)cc6CC[C@@H]5c5ccccc5)cc3)CC4)CC2)C(=O)N1 [ER-P-39, N-((S)-2,6-dioxopiperidin-3-yl)-7-fluoro-1'-(3-(4-((1R,2S)-6-hydroxy-2-phenyl-1,2,3,4-tetrahydronaphthalen-1-yl)phenyl)-3-azaspiro[5.5]undecan-9-yl)-2H-spiro[benzofuran-3,4'-piperidine]-6-carboxamide] | 14.2 | 526 | -7 | -3 | -13 | -16 | – | – |
| O=C1CCC(Nc2ccc3c(c2)COC[C@H]2CN(CC4CCC(OC5CCN(c6ccc([C@@H]7c8ccc(O)cc8CC[C@@H]7c7ccccc7)cc6)CC5)CC4)CCN32)C(=O)N1 (single isomer, unassigned) [ER-P-51] | – | – | 14 | 12 | 5 | 1 | 74.3 | 1260 |
| CN(c1ccc2c(c1)COC[C@H]1CN(CC3CCC(OC4CCN(c5ccc([C@@H]6c7ccc(O)cc7CC[C@@H]6c6ccccc6)cc5)CC4)CC3)CCN21)C1CCC(=O)NC1=O (stereo partly drawn) [ER-P-52, 3-(((R)-3-((4-((1-(4-((1R,2S)-6-hydroxy-2-phenyl-1,2,3,4-tetrahydronaphthalen-1-yl)phenyl)piperidin-4-yl)oxy)cyclohexyl)methyl)-1,2,3,4,4a,5-hexahydro-7H-benzo[e]pyrazino[2,1-c][1,4]oxazepin-9-yl)(methyl)amino)piperidine-2,6-dione] | 248 | 854 | 6 | 6 | -2 | 7 | – | – |
| Cn1c(=O)n(C2CCC(=O)NC2=O)c2cc3c(cc21)OC1(CC3)CCN(C[C@H]2CC[C@@H](OC3CCN(c4ccc([C@@H]5c6ccc(O)cc6CC[C@@H]5c5ccccc5)cc4)CC3)CC2)CC1 (stereo partly drawn) [ER-P-65, 3-(1'-(((1S,4S)-4-((1-(4-((1R,2S)-6-hydroxy-2-phenyl-1,2,3,4-tetrahydronaphthalen-1-yl)phenyl)piperidin-4-yl)oxy)cyclohexyl)methyl)-3-methyl-2-oxo-2,3,7,8-tetrahydro-1H-spiro[benzopyrano[6,7-d]imidazole-6,4'-piperidin]-1-yl)piperidine-2,6-dione] | 7.34 | 261 | 20 | 77 | 21 | 62 | – | – |
| CN(C(=O)CN1CCC2(CC1)COc1c2ccc2c1n(C)c(=O)n2C1CCC(=O)NC1=O)C1CCC2(CC1)CN(c1ccc([C@@H]3c4ccc(O)cc4CC[C@@H]3c3ccccc3)cc1)C2 (stereo partly drawn) [ER-P-64, 2-(3-(2,6-dioxopiperidin-3-yl)-1-methyl-2-oxo-2,3-dihydro-1H,7H-spiro[benzofuro[6,7-d]imidazole-6,4'-piperidin]-1'-yl)-N-(2-(4-((1R,2S)-6-hydroxy-2-phenyl-1,2,3,4-tetrahydronaphthalen-1-yl)phenyl)-2-azaspiro[3.5]nonan-7-yl)-N-methylacetamide] | 1.5 | 231 | 56 | 80 | 46 | 57 | – | – |
| Cn1c(=O)n(C2CCC(=O)NC2=O)c2ccc3c(c21)OCC31CCN(C(=O)C2CN(CC3CCN(c4ccc([C@@H]5c6ccc(O)cc6CC[C@@H]5c5ccccc5)cc4)CC3)C2)CC1 (stereo partly drawn) [ER-P-25, 3-(1'-(1-((1-(4-((1R,2S)-6-hydroxy-2-phenyl-1,2,3,4-tetrahydronaphthalen-1-yl)phenyl)piperidin-4-yl)methyl)azetidine-3-carbonyl)-1-methyl-2-oxo-1,2-dihydro-3H,7H-spiro[benzofuro[6,7-d]imidazole-6,4'-piperidin]-3-yl)piperidine-2,6-dione] | 0.84 | 1.26 | 77 | 71 | 49 | 53 | – | – |
| Cn1c(=O)n(C2CCC(=O)NC2=O)c2ccc3c(c21)OCC31CCN(C2CCC3(CC2)CCN(c2ccc([C@@H]4c5ccc(O)cc5CC[C@@H]4c4ccccc4)cc2)CC3)CC1 (stereo partly drawn) [ER-P-16, 3-(1'-(3-(4-((1R,2S)-6-hydroxy-2-phenyl-1,2,3,4-tetrahydronaphthalen-1-yl)phenyl)-3-azaspiro[5.5]undecan-9-yl)-1-methyl-2-oxo-1,2-dihydro-3H,7H-spiro[benzofuro[6,7-d]imidazole-6,4'-piperidin]-3-yl)piperidine-2,6-dione] | 0.62 | 885 | 69 | 73 | 43 | 62 | – | – |
